# The source made the active and inactive calls. No cut-off for these calls is given here.
# Key:
# UO-31 = assay: Growth inhibition of human UO31 cells assessed as cell growth at 10^-6 M incubated for 48 hrs by sulforhodamine B assay relative to control; assay type: functional; settings: UO-31, 48 h, read-out: Activity
# HCT-15 [1] = assay: Growth inhibition of human HCT15 cells assessed as cell growth at 10^-7 M incubated for 48 hrs by sulforhodamine B assay relative to control; assay type: functional; settings: HCT-15, 48 h, read-out: Activity
# SF-295 = assay: Growth inhibition of human SF295 cells assessed as cell growth at 10^-7 M incubated for 48 hrs by sulforhodamine B assay relative to control; assay type: functional; settings: SF-295, 48 h, read-out: Activity
# SK-MEL-28 = assay: Growth inhibition of human SK-MEL-28 cells assessed as cell growth at 10^-4 M incubated for 48 hrs by sulforhodamine B assay relative to control; assay type: functional; settings: SK-MEL-28, 48 h, read-out: Activity
# CAKI-1 = assay: Growth inhibition of human Caki1 cells assessed as cell growth at 10^-5 M incubated for 48 hrs by sulforhodamine B assay relative to control; assay type: functional; settings: CAKI-1, 48 h, read-out: Activity
# SF-268 = assay: Growth inhibition of human SF268 cells assessed as cell growth at 10^-6 M incubated for 48 hrs by sulforhodamine B assay relative to control; assay type: functional; settings: SF-268, 48 h, read-out: Activity
# SNB-75 = assay: Growth inhibition of human SNB75 cells assessed as cell growth at 10^-7 M incubated for 48 hrs by sulforhodamine B assay relative to control; assay type: functional; settings: SNB-75, 48 h, read-out: Activity
# NCI-H226 = assay: Growth inhibition of human NCI-H226 cells assessed as cell growth at 10^-8 M incubated for 48 hrs by sulforhodamine B assay relative to control; assay type: functional; settings: NCI-H226, 48 h, read-out: Activity
# SK-MEL-2 [2] = assay: Growth inhibition of human SK-MEL-2 cells assessed as cell growth at 10^-5 M incubated for 48 hrs by sulforhodamine B assay relative to control; assay type: functional; settings: SK-MEL-2, 48 h, read-out: Activity
# OVCAR-3 = assay: Growth inhibition of human OVCAR3 cells assessed as cell growth at 10^-6 M incubated for 48 hrs by sulforhodamine B assay relative to control; assay type: functional; settings: OVCAR-3, 48 h, read-out: Activity
# NCI-H522 [3] = assay: Growth inhibition of human NCI-H522 cells assessed as cell growth at 10^-6 M incubated for 48 hrs by sulforhodamine B assay relative to control; assay type: functional; settings: NCI-H522, 48 h, read-out: Activity
# NCI-H522 [4] = assay: Growth inhibition of human NCI-H522 cells assessed as cell growth at 10^-7 M incubated for 48 hrs by sulforhodamine B assay relative to control; assay type: functional; settings: NCI-H522, 48 h, read-out: Activity
# RXF 393 = assay: Growth inhibition of human RXF393 cells assessed as cell growth at 10^-8 M incubated for 48 hrs by sulforhodamine B assay relative to control; assay type: functional; settings: RXF 393, 48 h, read-out: Activity
# HL-60 [5] = assay: Downregulation of HDAC3 mRNA expression in human HL60 cells by qRT-PCR method; assay type: functional, cell-based
# OVCAR-5 = assay: Growth inhibition of human OVCAR5 cells incubated for 48 hrs by sulforhodamine B assay; assay type: functional; settings: OVCAR-5, 48 h
# MDA-MB-468 = assay: Growth inhibition of human MDA-MB-468 cells assessed as cell growth at 10^-7 M incubated for 48 hrs by sulforhodamine B assay relative to control; assay type: functional; settings: MDA-MB-468, 48 h, read-out: Activity
# HCT-116 = assay: Growth inhibition of human HCT116 cells assessed as cell growth at 10^-5 M incubated for 48 hrs by sulforhodamine B assay relative to control; assay type: functional; settings: HCT-116, 48 h, read-out: Activity
# MCF7 = assay: Growth inhibition of human MCF7 cells incubated for 48 hrs by sulforhodamine B assay; assay type: functional; settings: MCF7, 48 h
# TK-10 [6] = assay: Growth inhibition of human TK10 cells assessed as cell growth at 10^-4 M incubated for 48 hrs by sulforhodamine B assay relative to control; assay type: functional; settings: TK-10, 48 h, read-out: Activity
# RPMI-8226 = assay: Growth inhibition of human RPMI8226 cells assessed as cell growth at 10^-4 M incubated for 48 hrs by sulforhodamine B assay relative to control; assay type: functional; settings: RPMI-8226, 48 h, read-out: Activity
# LOX IMVI = assay: Growth inhibition of human LOXIMVI cells assessed as cell growth at 10^-6 M incubated for 48 hrs by sulforhodamine B assay relative to control; assay type: functional; settings: read-out: Activity
# HOP-62 [7] = assay: Growth inhibition of human HOP62 cells assessed as cell growth at 10^-6 M incubated for 48 hrs by sulforhodamine B assay relative to control; assay type: functional; settings: HOP-62, 48 h, read-out: Activity
# A498 = assay: Growth inhibition of human A498 cells incubated for 48 hrs by sulforhodamine B assay; assay type: functional; settings: A498, 48 h
# NCI/ADR-RES = assay: Growth inhibition of human NCI/ADR-RES cells assessed as cell growth at 10^-7 M incubated for 48 hrs by sulforhodamine B assay relative to control; assay type: functional; settings: read-out: Activity
# SK-OV-3 = assay: Growth inhibition of human SKOV3 cells assessed as cell growth at 10^-6 M incubated for 48 hrs by sulforhodamine B assay relative to control; assay type: functional; settings: SK-OV-3, 48 h, read-out: Activity
# TK-10 [8] = assay: Growth inhibition of human TK10 cells assessed as cell growth at 10^-8 M incubated for 48 hrs by sulforhodamine B assay relative to control; assay type: functional; settings: TK-10, 48 h, read-out: Activity
# SK-MEL-2 [9] = assay: Growth inhibition of human SK-MEL-2 cells assessed as cell growth at 10^-6 M incubated for 48 hrs by sulforhodamine B assay relative to control; assay type: functional; settings: SK-MEL-2, 48 h, read-out: Activity
# HL-60 [10] = assay: Induction of apoptosis in human HL60 cells assessed as late apoptotic cells by propidium iodide/Annexin V staining based flow cytometry (reference value: 0.54%); assay type: functional
# SW-620 = assay: Growth inhibition of human SW620 cells assessed as cell growth at 10^-4 M incubated for 48 hrs by sulforhodamine B assay relative to control; assay type: functional; settings: SW-620, 48 h, read-out: Activity
# HCT-15 [11] = assay: Growth inhibition of human HCT15 cells assessed as cell growth at 10^-6 M incubated for 48 hrs by sulforhodamine B assay relative to control; assay type: functional; settings: HCT-15, 48 h, read-out: Activity
# MOLT-4 = assay: Growth inhibition of human MOLT4 cells assessed as cell growth at 10^-5 M incubated for 48 hrs by sulforhodamine B assay relative to control; assay type: functional; settings: MOLT-4, 48 h, read-out: Activity
# HOP-62 [12] = assay: Growth inhibition of human HOP62 cells assessed as cell growth at 10^-7 M incubated for 48 hrs by sulforhodamine B assay relative to control; assay type: functional; settings: HOP-62, 48 h, read-out: Activity
# [13] = read-out: LC50 (the source's name)
# [14] = read-out: pLC50 (the source's name) (converted)
compound,measurement,setting,value
CCS/C(Nc1ccccc1)=C(\C#N)C(=O)Nc1ccc(OC)cc1,growth at 1 µM,UO-31,87%
same,growth at 0.1 µM,HCT-15 [1],88%
same,growth at 0.1 µM,SF-295,90%
same,growth at 100 µM,SK-MEL-28,37%
same,growth at 10 µM,CAKI-1,29%
same,growth at 1 µM,SF-268,90%
same,growth at 0.1 µM,SNB-75,84%
same,growth at 0.01 µM,NCI-H226,95%
same,growth at 10 µM,SK-MEL-2 [2],11%
same,growth at 1 µM,OVCAR-3,90%
same,growth at 1 µM,NCI-H522 [3],77%
same,growth at 0.1 µM,NCI-H522 [4],94%
same,growth at 0.01 µM,RXF 393,106%
same,Activity,HL-60 [5],Active
same,GI50,OVCAR-5; read-out: GI50,5.52 µM
same,CC50,OVCAR-5; [13],> 100 µM
same,TGI,OVCAR-5; read-out: TGI,> 100 µM
same,GI50,OVCAR-5; read-out: pGI50 (converted),5.5 µM
same,CC50,OVCAR-5; [14],> 100 µM
same,TGI,OVCAR-5; read-out: pTGI,> 100 µM
same,growth at 0.1 µM,MDA-MB-468,86%
same,growth at 10 µM,HCT-116,3%
same,GI50,MCF7; read-out: GI50,2.71 µM
same,CC50,MCF7; [13],> 100 µM
same,TGI,MCF7; read-out: TGI,> 100 µM
same,GI50,MCF7; read-out: pGI50 (converted),2.69 µM
same,CC50,MCF7; [14],> 100 µM
same,TGI,MCF7; read-out: pTGI,> 100 µM
same,growth at 100 µM,TK-10 [6],24%
same,growth at 100 µM,RPMI-8226,5%
same,growth at 1 µM,LOX IMVI,89%
same,growth at 1 µM,HOP-62 [7],78%
same,GI50,A498; read-out: GI50,2.54 µM
same,CC50,A498; [13],> 100 µM
same,TGI,A498; read-out: TGI,26.6 µM
same,GI50,A498; read-out: pGI50 (converted),2.57 µM
same,CC50,A498; [14],> 100 µM
same,TGI,A498; read-out: pTGI (converted),26.9 µM
same,growth at 0.1 µM,NCI/ADR-RES,95%
same,growth at 1 µM,SK-OV-3,93%
same,growth at 0.01 µM,TK-10 [8],104%
same,growth at 1 µM,SK-MEL-2 [9],86%
same,Activity,HL-60 [10],7.19%
same,growth at 100 µM,SW-620,14%
same,growth at 1 µM,HCT-15 [11],53%
same,growth at 10 µM,MOLT-4,21%
same,growth at 0.1 µM,HOP-62 [12],84%
CCS/C(Nc1ccccc1)=C(\C#N)C(=O)N/N=C\c1ccc(Cl)cc1Cl,growth at 1 µM,UO-31,86%
same,growth at 0.1 µM,HCT-15 [1],87%
same,growth at 0.1 µM,SF-295,88%
same,growth at 100 µM,SK-MEL-28,45%
same,growth at 10 µM,CAKI-1,23%
same,growth at 1 µM,SF-268,87%
same,growth at 0.1 µM,SNB-75,78%
same,growth at 0.01 µM,NCI-H226,90%
same,growth at 10 µM,SK-MEL-2 [2],16%
same,growth at 1 µM,OVCAR-3,90%
same,growth at 1 µM,NCI-H522 [3],68%
same,growth at 0.1 µM,NCI-H522 [4],82%
same,growth at 0.01 µM,RXF 393,93%
same,Activity,HL-60 [5],Active
same,GI50,OVCAR-5; read-out: GI50,8.25 µM
same,CC50,OVCAR-5; [13],> 100 µM
same,TGI,OVCAR-5; read-out: TGI,> 100 µM
same,GI50,OVCAR-5; read-out: pGI50 (converted),8.32 µM
same,CC50,OVCAR-5; [14],> 100 µM
same,TGI,OVCAR-5; read-out: pTGI,> 100 µM
same,growth at 0.1 µM,MDA-MB-468,88%
same,growth at 10 µM,HCT-116,7%
same,GI50,MCF7; read-out: GI50,2.99 µM
same,CC50,MCF7; [13],> 100 µM
same,TGI,MCF7; read-out: TGI,> 100 µM
same,GI50,MCF7; read-out: pGI50 (converted),3.02 µM
same,CC50,MCF7; [14],> 100 µM
same,TGI,MCF7; read-out: pTGI,> 100 µM
same,growth at 100 µM,TK-10 [6],42%
same,growth at 100 µM,RPMI-8226,6%
same,growth at 1 µM,LOX IMVI,86%
same,growth at 1 µM,HOP-62 [7],76%
same,GI50,A498; read-out: GI50,1.87 µM
same,CC50,A498; [13],> 100 µM
same,TGI,A498; read-out: TGI,37.8 µM
same,GI50,A498; read-out: pGI50 (converted),1.86 µM
same,CC50,A498; [14],> 100 µM
same,TGI,A498; read-out: pTGI (converted),38 µM
same,growth at 0.1 µM,NCI/ADR-RES,97%
same,growth at 1 µM,SK-OV-3,92%
same,growth at 0.01 µM,TK-10 [8],93%
same,growth at 1 µM,SK-MEL-2 [9],86%
same,Activity,HL-60 [10],8.54%
same,growth at 100 µM,SW-620,25%
same,growth at 1 µM,HCT-15 [11],77%
same,growth at 10 µM,MOLT-4,22%
same,growth at 0.1 µM,HOP-62 [12],85%

# From ChEMBL document CHEMBL4145553, “Design, synthesis, and biological evaluation of novel amide and hydrazide based thioether analogs targeting Histone deacteylase (HDAC) enzymes” (Eur J Med Chem, 2018)
